Assay results taken from patent publication US20190337989A1, “IMMUNITY INDUCER” (priority 2016, published 2019).
Several values for one entry are separate records, joined by “and”; a condition that tells them apart may be missing. Identical values can stand only once. Entries after “also recorded” stand apart in the source; their conditions may differ. Like-named read-outs stand apart in the source and are kept apart here.

Tests used:
[1] = system: avian influenza virus; design: species or system mice; details: mouse, in vivo, iv
[2] = system: avian influenza virus; design: species or system Balb/c mice; details: mouse, in vivo, ip

Core-[PEG-STQKAID]4 [avian influenza MAP4]
induction of IgG and IgM antibodies against the avian influenza virus [1]: found to be induced; also recorded: enabled induction of IgG and IgM antibodies
IgG concentration [2]: higher than 100 ng/ml
induction of IgG and IgM antibodies against the avian influenza virus [2]: enabled induction of IgG and IgM antibodies
mice in which IgM antibodies were induced [2]: 5 out of 5 mice and increased in all mice
mice with apparent increase in the IgG level [2]: 3 mice out of 5 mice
subclasses exhibiting increased IgG antibody levels [2]: IgG and IgG3; also recorded: IgG1 and IgG3
total level of IgG antibody converted to anti-FLAG antibody [2]: 157 ng/mL and 154 ng/mL and 106 ng/mL and 122 ng/mL and 148 ng/mL and 83 ng/mL
